Test [1] addresses T1, Serine/threonine-protein kinase MAK (Homo sapiens) (UniProt P20794).
T1 sequence (whole entry): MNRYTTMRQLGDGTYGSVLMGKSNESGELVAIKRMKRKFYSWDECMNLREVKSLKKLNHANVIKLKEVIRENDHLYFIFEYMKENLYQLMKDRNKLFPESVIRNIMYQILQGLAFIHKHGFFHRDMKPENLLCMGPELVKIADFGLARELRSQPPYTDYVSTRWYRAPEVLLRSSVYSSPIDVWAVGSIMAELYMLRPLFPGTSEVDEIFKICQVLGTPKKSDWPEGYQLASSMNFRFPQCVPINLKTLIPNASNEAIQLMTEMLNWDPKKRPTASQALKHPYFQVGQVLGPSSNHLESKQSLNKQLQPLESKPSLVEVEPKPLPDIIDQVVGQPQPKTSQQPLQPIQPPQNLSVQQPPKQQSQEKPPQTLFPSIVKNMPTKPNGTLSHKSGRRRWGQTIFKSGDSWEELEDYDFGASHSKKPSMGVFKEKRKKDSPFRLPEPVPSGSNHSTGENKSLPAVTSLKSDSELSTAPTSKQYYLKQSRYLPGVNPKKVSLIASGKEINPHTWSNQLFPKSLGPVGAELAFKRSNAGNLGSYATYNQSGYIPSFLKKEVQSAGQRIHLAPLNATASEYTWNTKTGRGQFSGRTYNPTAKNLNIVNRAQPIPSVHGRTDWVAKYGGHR
Conditions: Compound concentration 1000.0 nM.

Test [2] concerns the target Insulin-like growth factor 1 receptor (Homo sapiens) (UniProt P08069). Conditions: Compound concentration 1000.0 nM.
Test [3] has as its target Alpha-2A adrenergic receptor (Homo sapiens) (UniProt P08913). Conditions: Compound concentration 10.0 uM.
Test [4] addresses Casein kinase I isoform gamma-2 (Homo sapiens) (UniProt P78368). Conditions: Compound concentration 1000.0 nM.
Test [5] deals with Vascular endothelial growth factor receptor 3 (Homo sapiens) (UniProt P35916). Conditions: Compound concentration 1000.0 nM.
For test [6], the target named is T2, NUAK family SNF1-like kinase 1 (Homo sapiens) (UniProt O60285).
T2 sequence (whole entry): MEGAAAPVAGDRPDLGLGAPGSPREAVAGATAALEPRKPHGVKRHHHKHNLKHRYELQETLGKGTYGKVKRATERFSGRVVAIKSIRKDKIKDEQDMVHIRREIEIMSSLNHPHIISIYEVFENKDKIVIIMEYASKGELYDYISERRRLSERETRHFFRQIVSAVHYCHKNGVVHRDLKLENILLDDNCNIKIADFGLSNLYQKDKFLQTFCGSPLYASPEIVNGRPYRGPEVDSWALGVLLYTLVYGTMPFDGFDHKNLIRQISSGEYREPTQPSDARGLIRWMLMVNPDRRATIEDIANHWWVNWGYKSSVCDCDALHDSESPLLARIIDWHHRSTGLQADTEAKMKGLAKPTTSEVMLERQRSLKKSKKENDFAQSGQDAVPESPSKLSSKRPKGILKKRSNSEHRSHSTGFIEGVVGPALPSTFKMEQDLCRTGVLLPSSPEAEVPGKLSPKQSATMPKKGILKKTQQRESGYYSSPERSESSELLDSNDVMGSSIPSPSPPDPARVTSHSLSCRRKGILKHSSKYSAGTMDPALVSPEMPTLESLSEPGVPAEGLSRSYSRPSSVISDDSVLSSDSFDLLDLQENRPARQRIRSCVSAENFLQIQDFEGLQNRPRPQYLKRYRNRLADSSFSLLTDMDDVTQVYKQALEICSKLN
Conditions: Compound concentration 1000.0 nM.

Test [7] addresses Mitogen-activated protein kinase kinase kinase 1 (Homo sapiens) (UniProt Q13233). Conditions: Compound concentration 1000.0 nM.
In test [8] the test system is Epidermal growth factor receptor (Homo sapiens), P00533 [L858R,T790M]. Conditions: Compound concentration 1000.0 nM.
Test [9] concerns the target T3, Serine/threonine-protein kinase ICK (Homo sapiens) (UniProt Q9UPZ9).
T3 sequence (whole entry): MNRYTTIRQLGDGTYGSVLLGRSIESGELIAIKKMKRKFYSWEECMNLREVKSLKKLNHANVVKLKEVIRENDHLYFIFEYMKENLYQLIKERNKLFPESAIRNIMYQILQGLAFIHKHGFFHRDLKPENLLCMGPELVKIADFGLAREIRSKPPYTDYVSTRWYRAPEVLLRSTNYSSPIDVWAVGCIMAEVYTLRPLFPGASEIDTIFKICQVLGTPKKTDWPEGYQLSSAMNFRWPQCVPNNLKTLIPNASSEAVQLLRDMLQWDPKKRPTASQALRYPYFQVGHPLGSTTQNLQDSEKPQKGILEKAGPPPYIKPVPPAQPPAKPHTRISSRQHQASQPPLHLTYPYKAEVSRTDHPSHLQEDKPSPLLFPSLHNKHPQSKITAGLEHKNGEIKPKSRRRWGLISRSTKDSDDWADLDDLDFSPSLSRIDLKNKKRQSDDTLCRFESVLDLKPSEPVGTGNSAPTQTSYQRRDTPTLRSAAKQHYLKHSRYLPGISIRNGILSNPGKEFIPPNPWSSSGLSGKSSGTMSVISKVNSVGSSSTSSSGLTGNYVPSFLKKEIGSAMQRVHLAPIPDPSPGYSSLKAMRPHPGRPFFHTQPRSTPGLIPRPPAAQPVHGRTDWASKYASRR
Conditions: Compound concentration 1000.0 nM.

Test [10] concerns the target Myosin light chain kinase, smooth muscle (Homo sapiens) (UniProt Q15746). Conditions: Compound concentration 1000.0 nM.
The target in test [11] is SRSF protein kinase 3 (Homo sapiens) (UniProt Q9UPE1). Conditions: Compound concentration 1000.0 nM.
For test [12], the target named is Platelet-derived growth factor receptor beta (Homo sapiens) (UniProt P09619). Conditions: Compound concentration 1000.0 nM.
Test [13] has as its target Eukaryotic translation initiation factor 2-alpha kinase 1 (Homo sapiens) (UniProt Q9BQI3). Conditions: Compound concentration 1000.0 nM.
The target in test [14] is Tyrosine-protein kinase Fes/Fps (Homo sapiens) (UniProt P07332). Conditions: Compound concentration 1000.0 nM.
Sequence of Tyrosine-protein kinase Fes/Fps (Homo sapiens) (P07332 whole entry): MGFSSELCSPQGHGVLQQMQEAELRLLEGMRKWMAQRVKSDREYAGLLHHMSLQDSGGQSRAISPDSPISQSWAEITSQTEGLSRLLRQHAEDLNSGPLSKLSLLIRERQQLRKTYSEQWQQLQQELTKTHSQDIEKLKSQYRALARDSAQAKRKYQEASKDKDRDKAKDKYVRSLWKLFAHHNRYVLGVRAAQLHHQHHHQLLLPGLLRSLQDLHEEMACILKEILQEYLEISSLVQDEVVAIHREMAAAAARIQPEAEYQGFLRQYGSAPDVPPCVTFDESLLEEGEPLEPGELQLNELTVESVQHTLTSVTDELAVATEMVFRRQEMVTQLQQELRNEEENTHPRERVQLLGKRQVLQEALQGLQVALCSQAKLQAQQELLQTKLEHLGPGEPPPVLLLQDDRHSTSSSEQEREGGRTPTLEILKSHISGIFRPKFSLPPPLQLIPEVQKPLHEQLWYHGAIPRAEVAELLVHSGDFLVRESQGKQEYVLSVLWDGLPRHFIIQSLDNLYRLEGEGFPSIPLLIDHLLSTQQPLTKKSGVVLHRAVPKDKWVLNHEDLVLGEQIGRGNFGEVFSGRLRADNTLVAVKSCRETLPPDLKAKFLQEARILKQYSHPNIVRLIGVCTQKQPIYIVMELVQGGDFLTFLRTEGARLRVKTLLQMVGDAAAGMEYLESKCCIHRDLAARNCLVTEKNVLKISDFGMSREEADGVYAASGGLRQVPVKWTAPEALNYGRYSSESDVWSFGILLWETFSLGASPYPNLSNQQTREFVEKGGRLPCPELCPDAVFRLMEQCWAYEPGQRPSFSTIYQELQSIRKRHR
Test [15] addresses Tyrosine-protein kinase Lyn (Homo sapiens) (UniProt P07948). Conditions: Compound concentration 1000.0 nM.
In test [16] the target is Mitogen-activated protein kinase 14 (Homo sapiens) (UniProt Q16539). Conditions: Compound concentration 1000.0 nM.
For test [17], the system named is Hepatocyte growth factor receptor (Homo sapiens), P08581 [Y1235D]. Conditions: Compound concentration 1000.0 nM.
Test [18] has as its target Mitogen-activated protein kinase kinase kinase 10 (Homo sapiens) (UniProt Q02779). Conditions: Compound concentration 1000.0 nM.
For test [19], the target named is Serine/threonine-protein kinase PAK 5 (Homo sapiens) (UniProt Q9P286). Conditions: Compound concentration 1000.0 nM.
Sequence of Serine/threonine-protein kinase PAK 5 (Homo sapiens) (Q9P286 whole entry, looked up): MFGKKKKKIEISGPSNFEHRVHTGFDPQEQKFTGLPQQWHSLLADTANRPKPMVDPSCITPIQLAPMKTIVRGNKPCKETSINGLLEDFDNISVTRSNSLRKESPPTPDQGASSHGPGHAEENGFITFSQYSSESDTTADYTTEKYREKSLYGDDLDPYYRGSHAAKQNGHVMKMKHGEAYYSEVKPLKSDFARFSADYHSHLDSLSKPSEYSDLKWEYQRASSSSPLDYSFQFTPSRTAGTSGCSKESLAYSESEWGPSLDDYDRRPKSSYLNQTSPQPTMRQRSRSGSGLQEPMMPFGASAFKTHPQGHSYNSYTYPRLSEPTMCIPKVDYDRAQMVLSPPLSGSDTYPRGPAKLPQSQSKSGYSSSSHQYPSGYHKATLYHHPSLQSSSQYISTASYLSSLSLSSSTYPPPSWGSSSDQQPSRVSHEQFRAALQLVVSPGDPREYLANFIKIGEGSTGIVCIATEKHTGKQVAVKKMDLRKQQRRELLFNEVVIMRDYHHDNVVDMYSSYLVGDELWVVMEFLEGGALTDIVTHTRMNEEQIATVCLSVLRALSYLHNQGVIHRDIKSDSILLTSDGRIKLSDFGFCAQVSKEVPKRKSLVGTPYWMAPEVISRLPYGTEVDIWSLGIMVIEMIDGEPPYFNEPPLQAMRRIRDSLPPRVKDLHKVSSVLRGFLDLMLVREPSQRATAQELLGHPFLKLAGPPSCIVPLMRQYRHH

Here are results for two molecules from ChEMBL document CHEMBL4507319 (2021).

The term inhibition denotes the percentage by which the read-out fell short of the control.

Sequence of Myosin light chain kinase, smooth muscle (Homo sapiens) (Q15746 whole entry): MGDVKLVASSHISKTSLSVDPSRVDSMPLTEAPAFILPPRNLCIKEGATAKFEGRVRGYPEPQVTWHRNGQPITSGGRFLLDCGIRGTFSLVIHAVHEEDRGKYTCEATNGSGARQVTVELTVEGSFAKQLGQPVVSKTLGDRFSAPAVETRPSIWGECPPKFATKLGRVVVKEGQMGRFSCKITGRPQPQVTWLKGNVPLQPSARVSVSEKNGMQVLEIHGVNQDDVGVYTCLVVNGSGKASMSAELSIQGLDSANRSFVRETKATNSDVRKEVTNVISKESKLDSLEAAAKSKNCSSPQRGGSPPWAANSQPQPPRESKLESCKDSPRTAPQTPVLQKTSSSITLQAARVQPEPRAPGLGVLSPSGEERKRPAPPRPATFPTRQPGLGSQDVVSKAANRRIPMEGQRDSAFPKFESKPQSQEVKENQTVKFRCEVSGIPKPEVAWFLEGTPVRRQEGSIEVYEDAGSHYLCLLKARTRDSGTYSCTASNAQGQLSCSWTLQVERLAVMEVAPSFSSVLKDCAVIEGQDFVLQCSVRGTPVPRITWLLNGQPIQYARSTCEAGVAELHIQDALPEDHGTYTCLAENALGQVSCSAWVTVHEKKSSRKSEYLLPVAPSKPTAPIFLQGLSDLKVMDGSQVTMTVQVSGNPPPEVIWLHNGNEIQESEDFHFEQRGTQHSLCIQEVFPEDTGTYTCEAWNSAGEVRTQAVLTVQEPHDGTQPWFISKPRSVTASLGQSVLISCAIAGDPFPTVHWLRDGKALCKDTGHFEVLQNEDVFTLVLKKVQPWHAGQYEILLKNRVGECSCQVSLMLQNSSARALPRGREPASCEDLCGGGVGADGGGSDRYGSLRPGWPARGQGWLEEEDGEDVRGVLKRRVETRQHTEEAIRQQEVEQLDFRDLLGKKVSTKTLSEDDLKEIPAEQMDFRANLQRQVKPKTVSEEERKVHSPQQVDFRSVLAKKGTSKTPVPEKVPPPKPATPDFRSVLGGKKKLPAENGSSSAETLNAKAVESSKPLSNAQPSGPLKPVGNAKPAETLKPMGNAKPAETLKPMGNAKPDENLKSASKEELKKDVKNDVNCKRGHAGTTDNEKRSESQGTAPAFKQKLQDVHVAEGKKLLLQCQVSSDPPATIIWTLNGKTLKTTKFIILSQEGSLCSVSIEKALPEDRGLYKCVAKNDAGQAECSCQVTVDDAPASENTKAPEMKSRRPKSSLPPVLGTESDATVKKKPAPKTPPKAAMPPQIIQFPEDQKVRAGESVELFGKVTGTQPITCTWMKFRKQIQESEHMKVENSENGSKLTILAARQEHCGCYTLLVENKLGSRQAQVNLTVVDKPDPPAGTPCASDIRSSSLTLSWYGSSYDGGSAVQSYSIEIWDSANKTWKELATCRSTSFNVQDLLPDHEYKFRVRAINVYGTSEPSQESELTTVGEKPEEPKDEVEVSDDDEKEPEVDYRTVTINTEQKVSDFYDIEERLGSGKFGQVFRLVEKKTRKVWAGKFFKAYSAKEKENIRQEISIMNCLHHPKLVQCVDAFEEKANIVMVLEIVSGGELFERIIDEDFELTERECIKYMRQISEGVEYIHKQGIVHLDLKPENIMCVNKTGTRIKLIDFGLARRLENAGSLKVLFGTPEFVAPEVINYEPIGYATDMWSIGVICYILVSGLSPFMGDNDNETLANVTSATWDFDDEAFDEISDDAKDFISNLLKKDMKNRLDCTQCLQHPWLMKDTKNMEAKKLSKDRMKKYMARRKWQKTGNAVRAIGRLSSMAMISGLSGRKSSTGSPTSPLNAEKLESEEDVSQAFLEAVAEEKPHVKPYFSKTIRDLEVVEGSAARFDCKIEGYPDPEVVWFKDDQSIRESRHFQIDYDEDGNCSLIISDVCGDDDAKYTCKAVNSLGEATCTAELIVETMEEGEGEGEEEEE
Sequence of Eukaryotic translation initiation factor 2-alpha kinase 1 (Homo sapiens) (Q9BQI3 whole entry): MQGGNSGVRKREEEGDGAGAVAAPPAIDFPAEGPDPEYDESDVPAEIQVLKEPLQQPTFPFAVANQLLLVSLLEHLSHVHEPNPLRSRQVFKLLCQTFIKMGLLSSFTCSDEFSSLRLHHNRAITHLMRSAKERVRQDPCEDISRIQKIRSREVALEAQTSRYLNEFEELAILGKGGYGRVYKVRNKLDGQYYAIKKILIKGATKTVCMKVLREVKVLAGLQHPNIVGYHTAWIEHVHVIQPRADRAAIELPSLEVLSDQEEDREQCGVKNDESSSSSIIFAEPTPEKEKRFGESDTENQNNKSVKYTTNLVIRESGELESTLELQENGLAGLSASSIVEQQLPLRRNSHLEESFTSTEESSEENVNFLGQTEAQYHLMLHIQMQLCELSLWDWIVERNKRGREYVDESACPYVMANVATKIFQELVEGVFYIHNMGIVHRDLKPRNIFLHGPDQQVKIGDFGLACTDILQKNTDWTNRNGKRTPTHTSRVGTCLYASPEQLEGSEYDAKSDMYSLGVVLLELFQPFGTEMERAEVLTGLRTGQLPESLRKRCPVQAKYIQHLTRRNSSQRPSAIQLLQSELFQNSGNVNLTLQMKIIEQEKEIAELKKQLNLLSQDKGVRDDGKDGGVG
Sequence of Tyrosine-protein kinase Lyn (Homo sapiens) (P07948 2-512 limits assumed): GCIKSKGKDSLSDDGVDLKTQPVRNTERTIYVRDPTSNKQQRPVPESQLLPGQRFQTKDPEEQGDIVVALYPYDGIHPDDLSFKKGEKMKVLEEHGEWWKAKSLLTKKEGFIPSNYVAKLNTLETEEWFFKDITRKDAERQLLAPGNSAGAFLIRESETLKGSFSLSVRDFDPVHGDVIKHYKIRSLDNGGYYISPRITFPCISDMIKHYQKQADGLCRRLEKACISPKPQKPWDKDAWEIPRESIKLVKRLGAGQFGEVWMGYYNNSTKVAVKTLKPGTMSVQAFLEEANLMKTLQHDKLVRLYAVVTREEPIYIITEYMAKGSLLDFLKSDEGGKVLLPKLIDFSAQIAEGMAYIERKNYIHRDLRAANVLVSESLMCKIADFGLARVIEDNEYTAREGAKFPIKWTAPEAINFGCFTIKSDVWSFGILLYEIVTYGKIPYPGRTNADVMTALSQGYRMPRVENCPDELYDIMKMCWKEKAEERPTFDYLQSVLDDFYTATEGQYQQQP
Sequence of Casein kinase I isoform gamma-2 (Homo sapiens) (P78368 whole entry, looked up, canonical isoform): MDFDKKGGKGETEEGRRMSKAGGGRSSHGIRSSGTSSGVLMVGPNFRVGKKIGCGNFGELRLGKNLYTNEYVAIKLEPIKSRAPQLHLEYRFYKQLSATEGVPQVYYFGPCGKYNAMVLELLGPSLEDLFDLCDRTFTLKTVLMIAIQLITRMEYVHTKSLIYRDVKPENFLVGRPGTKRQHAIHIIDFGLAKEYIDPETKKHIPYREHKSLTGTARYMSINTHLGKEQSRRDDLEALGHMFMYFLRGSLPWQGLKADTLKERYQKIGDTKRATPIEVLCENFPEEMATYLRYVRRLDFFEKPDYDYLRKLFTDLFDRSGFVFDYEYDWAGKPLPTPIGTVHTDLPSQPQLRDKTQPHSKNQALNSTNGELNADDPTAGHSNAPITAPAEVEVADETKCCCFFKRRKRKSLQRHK

In the case of `CC1=C(C#N)C(c2ccc3c(c2)c(NC(=O)c2ccccc2C)nn3C)C(C#N)=C(C)N1` [BAY-974], the residual activity in [1] is 100%; in test [2], 96%; in [4], 95%; in [5] it was 100%; in [6], 95%; in [7], 51%. Besides, the residual activity in [8] was 93%; in [9] it was 97%; in test [10] it was 100%; in test [11], 100%; in test [12] it was 94%; in test [13] it was 100%. Besides, the residual activity is 84% in [14]; 89% in [15]; 88% in [16]; 74% in [17]; 69% in test [18]; 100% in [19]. For the same molecule, the inhibition in test [3] is 14.4%.

In the case of `CCc1ccccc1C(=O)Nc1n[nH]c2c(C)c(F)c(C3C(C#N)=C(C)N(C)C(C)=C3C#N)cc12` [BAY-3827], the residual activity was 100% in test [1]; 87% in [2]; 97% in [4]; 85% in [5]; 33% in test [6]; 100% in test [7]. Besides, the residual activity in test [8] is 97%; in test [9], 100%; in [10], 55%; in test [11], 100%; in [12], 82%; in [13], 100%. In addition, the residual activity was 68% in [14]; 86% in test [15]; 100% in test [16]; 16% in test [17]; 100% in test [18]; 100% in test [19]. Besides, the inhibition in test [3] is 5.01%.
